Reference: patent publication US8906885B2, “Treating cancer with HSP90 inhibitory compounds” (Synta Pharmaceuticals Corp., priority 2011, dated 2014)
Read-outs that look alike come from different tables or passages of the source.

What was measured:
[1] = system: NB-39-nu neuroblastoma cell line; assay: NB-39-nu neuroblastoma cell viability; conditions: for effect in combination with ganetespib: NB-39-nu cells
[2] = system: H2228 NSCLC cells; assay: H2228 cell viability; type: cell-based
[3] = system: NPM-ALK/BaF3 cells; assay: Cytotoxic IC50 by XTT assay, NPM-ALK/BaF3 cells; conditions: read-out: cytotoxic IC50; crizotinib-sensitive parental NPM-ALK/BaF3, 72-hr incubation
[4] = system: crizotinib resistant H3122 cells; assay: Viability of crizotinib resistant H3122 cells; type: cell-based
Protocol: (§1) Then, criztoinib was added to a final concentration of 1 μM. […] Viability was measured by Cell Titer Glo assay (Promega) (FIG. 5)

[5] = system: crizotinib resistant H2228 cells; assay: Viability of crizotinib resistant H2228 cells; type: cell-based
[6] = system: H3122 xenografts; assay: Survival of animals bearing H3122 xenografts; type: in vivo, mouse
[7] = system: H3122 xenografts; assay: Sequential treatment of H3122 xenografts progressing on ganetespib; type: in vivo, mouse; conditions: after 26 days of ganetespib
[8] = system: ALK+ NSCLC; assay: Phase 2 NSCLC trial, patients tested for ALK translocation or rearrangement (ALK+); type: in vivo, human; conditions: eight ALK+ patients; monotherapy once-weekly 200 mg/m^2
From the text: FIG. 1 is a waterfall diagram showing the best percentage changes in size of target lesions responses according to ALK status after treatment with ganetespib. The y axis represents the percentage tumor volume change from baseline. […] A subject was considered to be ALK+ if a mutation in ALK was detected using any of the methods.
Of 23 patients in a Phase 2 trial tested for ALK translocation or rearrangement (ALK+), eight patients were ALK+ in at least one assay. […] The disease control rate in this population was ⅞ (88%), and the objective response rate (CR+PR) was 4/8 (50%).
This Phase 2 NSCLC trial was designed to enroll patients with advanced, metastatic disease (Stage IIIB and IV) who had failed prior therapy. Patients were grouped into one of three cohorts based on the genetic profile of their cancer—(A) EGFR mutation, (B) KRAS mutation, (C) neither EGFR nor KRAS mutation—and were treated with Compound 1, as a monotherapy, once-weekly at a dose of 200 mg/m^2. Based on initial encouraging signs of activity, the trial was expanded with two additional patient cohorts, including a cohort which allowed for combination treatment with ganetespib and docetaxel.

[9] = system: EML4-ALK positive NSCLC; assay: Case study, crizotinib refractory EML4-ALK positive NSCLC patient; type: in vivo, human; conditions: after three weeks of once-weekly injections; patient with resistance mutation to crizotinib
From the text: FIG. 2 depicts lung photographs of a person with NSCLC, who was diagnosed, and treated with pemetrexed/cisplatinum with pemetrexed maintenance for thirteen months. […] The picture on the left was taken on before commencing treatment with ganetespib. Treatment of ganetespib was initiated nine days later. The picture on the right was taken thirty-one days after the picture on the left.
The picture on the left was taken on before commencing treatment with ganetespib. Treatment of ganetespib was initiated nine days later.

[10] = system: crizotinib-resistant NPM-ALK/BaF3 cells; conditions: all crizotinib-resistant NPM-ALK/BaF3 clones
[11] = system: H3122 NSCLC cells; assay: H3122 cell viability, Cell Titer Glo, 72 h; type: cell-based; conditions: for IC50: Homo sapiens, NCI-H3122, read-out: cytotoxic potency
Protocol: H3122 cells were seeded in 96 well plates at a density of 7500 cells per well.
Twenty-four hours after plating, cells were dosed with graded concentrations of drug or vehicle for 72 hours. Viability was measured by the Cell Titer Glo assay (Promega).
as §1

[12] = system: H3122 xenografts
Protocol: Tumor volume was measured twice weekly to assess the level of growth inhibition.
As for in vivo xenograft tumor models, female BALB/c, immunodeficient BALB/c nude and CB-17/Icr-Prkdcscid/Crl (SCID) mice (Charles River Laboratories, Wilmington, Mass.) at 7-12 weeks of age were maintained in a pathogen-free environment and all in vivo procedures were approved by the Synta Pharmaceuticals Corp. Statistical analyses were performed using a Kruskal-Wallace one-way ANOVA on ranks followed by the Tukey test. […]

[13] = system: ALK; assay: ALK degradation and effector signaling in NB-39-nu cells
[14] = target: T1, EML4-ALK (Homo sapiens, UniProt Q9UM73); assay: Western blot of EML4-ALK and signaling proteins in H3122 cells; type: cell-based
T1 construct: the breakpoint of ALK occurs consistently at exon 20, 5′ of the kinase domain; EML4 N-terminal portion (through exon 13); endogenous in cells; host or cells: H3122 NSCLC cells; the other entry of the earlier key: EML4 (Q9HC35, Echinoderm microtubule-associated protein-like 4)
Protocol: H3122 cells were plated in 6 well plates at a density of 300,000 cells per well. […] Equivalent amounts of protein were resolved by SDS-PAGE followed by western blot analysis of signaling proteins.

[15] = system: NPM-ALK and mutant NPM-ALK; assay: Immunoblotting of NPM-ALK degradation in BaF3 cells; type: cell-based; conditions: wild type and 15 mutant forms
[16] = system: EML4-ALK; assay: Pharmacodynamic analysis in H3122 xenografts (western blot)

T1 sequence (Q9UM73 with tags, fused parts or gaps): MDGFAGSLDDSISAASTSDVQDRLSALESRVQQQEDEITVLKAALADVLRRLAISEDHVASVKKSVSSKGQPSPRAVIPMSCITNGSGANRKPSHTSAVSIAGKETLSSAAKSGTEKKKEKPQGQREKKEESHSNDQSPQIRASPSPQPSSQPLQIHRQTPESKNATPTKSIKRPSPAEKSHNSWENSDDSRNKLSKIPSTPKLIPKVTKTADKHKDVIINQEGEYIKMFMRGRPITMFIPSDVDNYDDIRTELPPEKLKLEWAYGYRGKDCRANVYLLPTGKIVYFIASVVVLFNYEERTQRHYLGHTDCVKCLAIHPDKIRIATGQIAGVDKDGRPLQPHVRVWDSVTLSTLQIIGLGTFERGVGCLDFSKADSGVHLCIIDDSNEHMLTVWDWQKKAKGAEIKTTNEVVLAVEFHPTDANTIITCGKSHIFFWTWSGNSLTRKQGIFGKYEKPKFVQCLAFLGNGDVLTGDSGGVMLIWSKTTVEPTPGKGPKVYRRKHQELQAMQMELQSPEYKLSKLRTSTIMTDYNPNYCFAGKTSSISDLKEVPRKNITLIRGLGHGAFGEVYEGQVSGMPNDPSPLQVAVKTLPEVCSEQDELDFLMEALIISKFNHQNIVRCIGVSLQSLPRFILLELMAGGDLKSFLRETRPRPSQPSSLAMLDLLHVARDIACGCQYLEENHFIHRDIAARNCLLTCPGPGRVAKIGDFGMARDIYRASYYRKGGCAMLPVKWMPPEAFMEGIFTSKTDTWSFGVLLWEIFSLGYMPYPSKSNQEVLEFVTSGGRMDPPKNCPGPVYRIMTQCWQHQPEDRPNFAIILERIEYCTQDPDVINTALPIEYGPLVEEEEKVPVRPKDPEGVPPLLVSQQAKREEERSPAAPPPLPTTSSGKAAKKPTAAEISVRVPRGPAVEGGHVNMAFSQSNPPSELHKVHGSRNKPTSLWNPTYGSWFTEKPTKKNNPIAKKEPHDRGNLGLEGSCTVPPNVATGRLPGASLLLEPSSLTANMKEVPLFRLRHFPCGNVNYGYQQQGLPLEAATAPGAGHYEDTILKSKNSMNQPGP

SMILES: CC(C)c1cc(-c2nnc(O)n2-c2ccc3c(ccn3C)c2)c(O)cc1O [ganetespib, 3-(2,4-dihydroxy-5-isopropyl-phenyl)-4-(1-methyl-indol-5-yl)-5-hydroxy-[1,2,4] triazole]
- IC50 ([1]; Neuroblastoma cell, read-out: viability IC50): 10 nM
- potency compared with crizotinib [2]: significantly more potent than crizotinib
- IC50 [3]: 21 nM
- activity in crizotinib resistant cells [4]: low nanomolar activity equivalent to that observed in the parental population
- activity in crizotinib resistant cells [5]: low nanomolar activity equivalent to that observed in the parental population
- animals lost on study ([6]; ganetespib 50 mg/kg 1×/wk, as of day 75): none of the animals treated with ganetespib had been lost
- response of tumors progressing (>20% increase in volume) on ganetespib to subsequent treatment [7]: remained fairly stable
- disease control rate [8]: 88%
- objective response rate (CR+PR) [8]: 50%
- patients showing tumor shrinkage in target lesions [8]: 75%
- tumor response on lung pictures [9]: visible and significant tumor shrinkage
- IC50 values in crizotinib-resistant clones [10]: essentially identical to that of NPM-ALK/BaF3
- potency compared with crizotinib ([11]; H3122 NSCLC cells): significantly more potent than crizotinib
- potency relative to crizotinib ([11]; H3122 cells): ~50 times
- potency compared to other anticancer agents (crizotinib, 17-AAG, pemetrexed, BEZ-235, AZD6244) ([11]; H3122 cells, 72 hours): 2-300 ×
- IC50 ([11]; H3122 cells): 3.2 nM
- T/C value ([12]; ganetespib 25 mg/kg once weekly): 41%
- T/C value ([12]; ganetespib 25 mg/kg two consecutive days each week): 10%
- T/C value ([12]; ganetespib 50 mg/kg i.v. once a week, 3 week period): 21%
- degradation of ALK [13]: dose-dependent degradation
- concentration giving complete loss of phosphorylated EML4-ALK [14]: 30 nM
- degradation of ALK [15]: induced the degradation of wild type and all 15 mutant forms of ALK
- duration of EML4-ALK depletion and block of oncogenic signaling pathways ([16]; 100 mpk (FIG. 13 legend)): up to 4 days
- time to degradation of EML4-ALK and deactivation of ERK signaling ([16]; single bolus injection 50 mg/kg): ≤ 24 h
- duration of destabilization of fusion kinase and its effectors ([16]; single dose 50 mg/kg): up to 72 h

SMILES: COc1cc(N2CCC(N3CCN(C)CC3)CC2)ccc1Nc1ncc(Cl)c(Nc2ccccc2S(=O)(=O)C(C)C)n1 [TAE684]
- effect in combination with ganetespib [1]: enhanced the anticancer actions of ganetespib

SMILES: C[C@@H](Oc1cc(-c2cnn(C3CCNCC3)c2)cnc1N)c1c(Cl)ccc(F)c1Cl [crizotinib, reference compound]
- effect in combination with ganetespib [1]: enhanced the anticancer actions of ganetespib
- survival (day at which 50% of animals died) ([6]; crizotinib 50 mg/kg 5×/wk): 54 days
- response of tumors progressing (>20% increase in volume) on ganetespib to subsequent treatment [7]: intermediary response
- IC50 ([11]; H3122 cells): 156 nM
